Results from US12331057B2, “Modulators of alpha-1 antitrypsin” (Vertex Pharmaceuticals Incorporated, priority 2019, dated 2025).

Key:
[1] = biological target: T1, NL20 human bronchial epithelial cells expressing human Z-AAT (Homo sapiens, UniProt P01009, E366K); assay: AAT Function Assay (MSD Assay NL20-SI Cell Line); type: cell-based; conditions: functionally active AAT in supernatant of NL20 cells expressing human Z-AAT, MSD readout; read-out: NL20 Func. (EC50)
T1 construct: expressed in transfected cells; host or cells: NL20 human bronchial epithelial cells (NL20-SI cell line), doxycycline added with compounds
In short: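 NL20 bronchial epithelial cells expressing human Z-AAT were treated with compounds overnight, with doxycycline at 0.1 μM final. Functional AAT in supernatants (45-fold diluted) was captured as complexes with excess human neutrophil elastase on anti-AAT plates. Detection used Sulfo-tagged anti-elastase by MSD electrochemiluminescence, quantified against M-AAT standards.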

Z-AAT = biological target: T2, Z-AAT (Homo sapiens, UniProt P01009, E366K); assay: Biochemical Assay (Z-AAT Elastase Activity Assay); conditions: purified Z-AAT protein from human plasma and purified human neutrophil elastase
T2 construct: Purified Z-AAT protein from human plasma; from tissue; host or cells: human plasma (patient #061-SSN; Vertex Cambridge Sample 4942)
In short: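 Purified Z-AAT and purified human neutrophil elastase in PBS with 0.01% BRIJ35; compound binding lowers Z-AAT SERPIN activity, so hNE cleaves Z-AAT instead of forming an inactivating complex. Values reported as […].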

T2 sequence (P01009 25-418 E366K): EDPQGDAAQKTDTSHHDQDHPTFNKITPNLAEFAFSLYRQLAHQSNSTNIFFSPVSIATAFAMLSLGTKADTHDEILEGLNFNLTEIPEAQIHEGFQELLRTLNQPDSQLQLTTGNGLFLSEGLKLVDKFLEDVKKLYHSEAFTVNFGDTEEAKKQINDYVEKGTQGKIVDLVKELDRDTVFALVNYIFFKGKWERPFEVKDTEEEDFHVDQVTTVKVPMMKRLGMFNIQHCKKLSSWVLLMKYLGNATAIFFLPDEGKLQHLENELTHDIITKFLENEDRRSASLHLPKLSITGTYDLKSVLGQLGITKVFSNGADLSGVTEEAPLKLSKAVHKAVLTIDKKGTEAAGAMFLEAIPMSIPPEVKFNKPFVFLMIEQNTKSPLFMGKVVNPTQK
T1 sequence (P01009 25-418 E366K): as above

| Compound | EC50 [1] | IC50 (Z-AAT) |
| --- | --- | --- |
| COCC(C)(C)c1c(-c2ccc(C(=O)NCCn3cncn3)cc2)c2cc3[nH]ncc3cc2n1-c1ccc(F)cc1 [Compound 228] | > 1000 nM | > 1000 nM |
| COCC(C)(C)c1c(-c2ccc(C(=O)NCC(C)(O)CO)cc2)c2cc3[nH]ncc3cc2n1-c1ccc(F)cc1 (stereo not drawn) [Compound 229] | > 1000 nM | > 30000 nM |
| COCC(C)(C)c1c(-c2cnn(CC(O)CO)c2)c2cc3[nH]ncc3cc2n1-c1ccc(F)cc1 (stereo not drawn) [Compound 230] | > 1000 nM | > 1000 nM |
| COCC(C)(C)c1c(-c2ccc(C(=O)NC3CCC(=O)NC3)cc2)c2cc3[nH]ncc3cc2n1-c1ccc(F)cc1 (stereo not drawn) [Compound 233] | > 1000 nM | > 1000 nM |
| COCC(C)(C)c1c(-c2ccc(C(=O)N[C@H]3C[C@H](CO)NC3=O)cc2)c2cc3[nH]ncc3cc2n1-c1ccc(F)cc1 [Compound 234] | > 1000 nM | > 1000 nM |
| COCC(C)(C)c1c(-c2ccc(C(=O)N[C@@H]3CCNC3=O)cc2)c2cc3[nH]ncc3cc2n1-c1ccc(F)cc1 [Compound 235] | > 1000 nM | > 1000 nM |
| COCC(C)(C)c1c(-c2ccc(C(=O)NC3CCNC(=O)C3)cc2)c2cc3[nH]ncc3cc2n1-c1ccc(F)cc1 (stereo not drawn) [Compound 236] | > 1000 nM | > 30000 nM |
| COCC(C)(C)c1c(-c2ccc(C(=O)NC3CCCNC3=O)cc2)c2cc3[nH]ncc3cc2n1-c1ccc(F)cc1 (stereo not drawn) [Compound 237] | > 1000 nM | > 1000 nM |
| COCC(C)(C)c1c(-c2ccc(C(=O)N3CCCC(O)(CO)C3)cc2)c2cc3[nH]ncc3cc2n1-c1ccc(F)cc1 (stereo not drawn) [Compound 239] | > 1000 nM | > 30000 nM |
| COCC(C)(C)c1c(-c2ccc(C(=O)N3CCC(O)(CO)C3)cc2)c2cc3[nH]ncc3cc2n1-c1ccc(F)cc1 (stereo not drawn) [Compound 240] | > 1000 nM | > 30000 nM |
| COCC(C)(C)c1c(-c2ccc(C(=O)N(C)CCS(C)(=O)=O)cc2)c2cc3[nH]ncc3cc2n1-c1ccc(F)cc1 [Compound 241] | > 1000 nM | > 30000 nM |
| COCC(C)(C)c1c(-c2ccc(C(=O)N3CCNC(=O)C3)cc2)c2cc3[nH]ncc3cc2n1-c1ccc(F)cc1 [Compound 243] | > 1000 nM | > 1000 nM |
| COCC(C)(C)c1c(-c2ccc(C(=O)N[C@H]3C[C@@H](CO)NC3=O)cc2)c2cc3[nH]ncc3cc2n1-c1ccc(F)cc1 [Compound 244] | > 1000 nM | > 1000 nM |
| COCC(C)(C)c1c(-c2ccc(C(N)=O)nc2OC)c2cc3[nH]ncc3cc2n1-c1ccc(F)cc1 [Compound 248] | > 1000 nM | > 30000 nM |
| COCC(C)(C)c1c(-c2cn(CC(=O)O)nc2C)c2cc3[nH]ncc3cc2n1-c1ccc(F)cc1 [Compound 249] | > 1000 nM | > 30000 nM |
| COCC(C)(C)c1c(-c2cn(C(C)(C)C(=O)O)nc2C)c2cc3[nH]ncc3cc2n1-c1ccc(F)cc1 [Compound 250] | > 1000 nM | > 30000 nM |
| COCC(C)(C)c1c(-c2cc(C(=O)O)n(C)n2)c2cc3[nH]ncc3cc2n1-c1ccc(F)cc1 [Compound 251] | > 1000 nM | > 30000 nM |
| CC(C)(CS(C)(=O)=O)c1c(-c2ccc(C(=O)O)cc2)c2cc3[nH]ncc3cc2n1-c1ccc(F)cc1 [Compound 255, 4-[6-(1,1-dimethyl-2-methylsulfonyl-ethyl)-5-(4-fluorophenyl)-1H-pyrrolo[2,3-f]indazol-7-yl]benzoic Acid] | > 1000 nM | > 1000 nM |
| CC(C)(CS(C)(=O)=O)c1c(-c2ccc(P(C)(C)=O)nc2)c2cc3[nH]ncc3cc2n1-c1ccc(F)cc1 [Compound 257] | > 1000 nM | > 30000 nM |
| COCC(C)(O)c1c(-c2ccc(C(=O)O)cc2)c2cc3[nH]ncc3cc2n1-c1ccc(F)cc1 (stereo not drawn) [Compound 259, 4-[5-(4-fluorophenyl)-6-(1-hydroxy-2-methoxy-1-methyl-ethyl)-1H-pyrrolo[2,3-f]indazol-7-yl]benzoic Acid] | > 1000 nM | > 30000 nM |
| CCC1(c2c(-c3ccc(P(C)(C)=O)cc3)c3cc4[nH]ncc4cc3n2-c2ccc(F)cc2)COC1 [Compound 260] | > 1000 nM | > 30000 nM |
| CCC1(c2c(-c3cnn(CC(=O)O)c3)c3cc4[nH]ncc4cc3n2-c2ccc(F)cc2)COC1 [Compound 261] | > 1000 nM | > 30000 nM |
| CCC1(c2c(-c3cnn(C(C)(C)C(=O)O)c3)c3cc4[nH]ncc4cc3n2-c2ccc(F)cc2)COC1 [Compound 262] | > 1000 nM | > 1000 nM |
| N#CCC1(c2c(-c3ccc(C(=O)O)cc3)c3cc4[nH]ncc4cc3n2-c2ccc(F)cc2)CC1 [Compound 263] | > 1000 nM | > 30000 nM |
| N#CCC1(c2c(-c3ccc(C(=O)O)cc3)c3cc4[nH]ncc4cc3n2-c2ccc(F)cc2)COC1 [Compound 264] | > 1000 nM | > 30000 nM |
| COCC1(c2c(-c3ccc(C(=O)O)cc3)c3cc4[nH]ncc4cc3n2-c2ccc(F)cc2)COC1 [Compound 266] | > 1000 nM | > 30000 nM |

The next lines start with the values.

| EC50 [1] | IC50 (Z-AAT) | Compound |
| --- | --- | --- |
| > 1000 nM | > 1000 nM | COCC(C)(C)c1c(-c2cnn(C(C)(C)CO)c2)c2cc3[nH]ncc3cc2n1-c1ccc(F)cc1 [Compound 223] |
| > 1000 nM | > 30000 nM | COCC(C)(C)c1c(-c2cnn(CC(=O)O)c2)c2cc3[nH]ncc3cc2n1-c1ccc(F)cc1 [Compound 224] |
| 400 to 1000 nM | > 30000 nM | COCC(C)(C)c1c(-c2ccc(C(=O)N3CC(S(C)(=O)=O)C3)cc2)c2cc3[nH]ncc3cc2n1-c1ccc(F)cc1 [Compound 225] |
| > 1000 nM | > 30000 nM | COCC(C)(C)c1c(-c2ccc(C(=O)N[C@H]3C[C@H](S(C)(=O)=O)C3)cc2)c2cc3[nH]ncc3cc2n1-c1ccc(F)cc1 [Compound 226] |
| > 1000 nM | > 30000 nM | COCC(C)(C)c1c(-c2ccc(C(=O)NCCS(C)(=O)=O)cc2)c2cc3[nH]ncc3cc2n1-c1ccc(F)cc1 [Compound 227] |
| 400 to 1000 nM | > 1000 nM | COCC(C)(C)c1c(-c2ccc(P(C)(C)=O)nc2)c2cc3[nH]ncc3cc2n1-c1ccc(F)cc1 [Compound 231] |
| 400 to 1000 nM | > 1000 nM | COCC(C)(C)c1c(-c2ccc(P(C)(C)=O)cc2)c2cc3[nH]ncc3cc2n1-c1ccc(F)cc1 [Compound 232] |
| 400 to 1000 nM | > 1000 nM | COCC(C)(C)c1c(-c2ccc(C(=O)N[C@@H]3C(=O)N[C@H]3C)cc2)c2cc3[nH]ncc3cc2n1-c1ccc(F)cc1 [Compound 238] |
| 400 to 1000 nM | > 1000 nM | COCC(C)(C)c1c(-c2ccc(C(=O)N[C@H]3CNC3=O)cc2)c2cc3[nH]ncc3cc2n1-c1ccc(F)cc1 [Compound 242] |
| 400 to 1000 nM | > 1000 nM | COCC(C)(C)c1c(-c2cnn(C(C)(C)C(N)=O)c2)c2cc3[nH]ncc3cc2n1-c1ccc(F)cc1 [Compound 247] |
| < 400 nM | > 1000 nM | COCC(C)(C)c1c(-c2ccc(C(=O)O)s2)c2cc3[nH]ncc3cc2n1-c1ccc(F)cc1 [Compound 252] |
| < 400 nM | < 400 nM | CC(C)(CO)c1c(-c2ccc(C(N)=O)cc2)c2cc3[nH]ncc3cc2n1-c1ccc(F)cc1 [Compound 253] |
| 400 to 1000 nM | > 1000 nM | Cc1cc(-c2c(C(C)(C)CO)n(-c3ccc(F)cc3)c3cc4cn[nH]c4cc23)cnc1P(C)(C)=O [Compound 254] |
| < 400 nM | > 1000 nM | CC(C)(CS(C)(=O)=O)c1c(-c2ccc(C(N)=O)cc2)c2cc3[nH]ncc3cc2n1-c1ccc(F)cc1 [Compound 256] |
| 400 to 1000 nM | > 30000 nM | Cc1cc(-c2c(C(C)(C)CS(C)(=O)=O)n(-c3ccc(F)cc3)c3cc4cn[nH]c4cc23)cnc1P(C)(C)=O [Compound 258] |
| < 400 nM | > 1000 nM | N#CCC1(c2c(-c3ccc(C(=O)O)cc3)c3cc4[nH]ncc4cc3n2-c2ccc(F)cc2)CCC1 [Compound 265] |
| < 400 nM | > 1000 nM | COCC1(c2c(-c3ccc(C(=O)O)cc3)c3cc4[nH]ncc4cc3n2-c2ccc(F)cc2)CCOCC1 [Compound 267] |
| < 400 nM | 400 to 1000 nM | CCC(C)c1c(-c2ccc(C(=O)O)cc2)c2cc3[nH]ncc3cc2n1-c1ccc(F)cc1 (stereo not drawn) [Compound 268] |
| < 400 nM | > 1000 nM | CCC(O)(COC)c1c(-c2ccc(C(=O)O)cc2)c2cc3[nH]ncc3cc2n1-c1ccc(F)cc1 (stereo not drawn) [Compound 269] |
